From patent US20230234996A1, “PI3K GAMMA INHIBITOR PEPTIDE FOR TREATMENT OF FIBROPROLIFERATIVE VASCULAR DISEASES” (Kither Biotech S.r.l., priority 2020, published 2023)
Entries after “also recorded” stand apart in the source; their conditions may differ.

How the values were obtained:
[1] = tested on: intracellular cAMP in primary VSMC; experiment: cAMP dynamics with FRET-based TEpacVV biosensor; type: cell-based, mouse; conditions: for cAMP level regulated by PDE3 (cilostamide response): cilostamide 1 μM; for cAMP level regulated by PDE4 (rolipram response): rolipram 1 μM; for cAMP production in response to forskolin: Rmax = forskolin 2.5 μM + IBMX 200 μM
Protocol: A. Left panel: Average changes in intracellular cAMP concentration ([cAMP]i) in primary VSMC from WT (top), PI3Kγ KO (middle) and PI3Kγ-KD (bottom) mice and expressing the ^TEpac^VV biosensor. The black line represents the average F480/F535 emission ratio over time in response to 2.5 μM forskolin (fsk) stimulation and fsk (2.5 μM)+IBMX (200 μM) treatment. B. Histograms representing the mean values for forskolin responses. Results are expressed as a percentage of the maximal ratio change (% of Rmax(IBMX response)) determined by the final application of forskolin (2.5 μM)+IBMX (200 μM). Data shown are the means±SEM. (n=5 mice). Data are presented as mean±SEM and were compared using a Kruskal-Wallis test. C. Homogenous time-resolved fluorescence (HTRF) dosage of intracellular cAMP from WT, PI3Kγ KO or PI3Kγ KD primary VSMC after 30 min treatment with vehicle or 0.5 μM Forskolin.
A. Average changes in [cAMP]i in primary VSMC from WT (top), PI3Kγ KO (middle) and PI3Kγ-KD (bottom) mice and expressing the ^TEpac^VV biosensor. The trace indicates the average F480/F535 emission ratio over time in response to 2.5 μM forskolin, cilostamide (1 μM), rolipram (1 μM) and forskolin (2.5 μM)+IBMX (200 μM) treatment. B. Histograms representing the mean values for rolipram and cilostamide responses. Results are expressed as a percentage of the maximal ratio change (% of Rmax (IBMX response)) determined by the final application of forskolin (2.5 μM)+IBMX (200 μM). Data are presented as mean±SEM (n>22 with 4 different mice) and were compared using a Kruskal-Wallis test. C. Phosphodiesterase activity detected in PDE4D immunoprecipitates from primary VSMC. Data shown are the means±SEM and compared using one-way ANOVA followed by Bonferroni post-hoc test (n=3). D. Representative Western blot of PDE4D immunoprecipitates.
Measurement of cAMP dynamics: Primary SMC were seeded on coverslips and infected with the ^TEpac^VV-encoding type-5 adenovirus (˜100 particles per SMC) as described elsewhere. Coverslips were placed in a microscope chamber continually perfused (2 mL·min^−1) with BBS buffer (125 mM NaCl, 2 mM CaCl2), 1 mM MgCl2, 1.25 mM NaH2PO4, 26 mM NaHCO3, 25 mM glucose) saturated with 95% 02-5% CO2. Ratiometric analyses were performed as follows: fluorescence was excited with a LED source at 435 nm and fluorescence emission was monitored with a dichroic mirror (T450LPXR) and alternating emission filters for the donor (HQ480/40) and acceptor (D535/40). Pairs of images were recorded with an Orca-ER CCD camera (Hamamatsu Photonics, Japan), at 20-s intervals. Changes in [cAMP]i are expressed as the ratio of donor fluorescence (F480) to acceptor fluorescence (F535). The ratios were multiplied by a same constant for all experiments, such that the baseline ratio was 1 in basal conditions. The maximum ratio change (Rmax) was obtained by stimulating cells with 2.5 μM forskolin and […] IBMX (15879, Sigma Aldrich). Filters and mirrors were obtained from AHF analysentechnik AG, Tübingen, Germany.

[2] = tested on: C5a-mediated Akt phosphorylation (Ser-473), relying on the catalytic activity of PI3Kγ, RAW264 macrophages; experiment: C5a-mediated Akt phosphorylation in macrophages (Western blot); type: cell-based; conditions: then C5a 5 min
Protocol: A. Schematic representation of the cell-permeable PI3Kγ competing peptide. The 126-150 region of PI3Kγ was fused to the cell-penetrating peptide Penetratin 1 (P1). A control peptide was generated by insertion of two point mutations (K>A and R>A at position 1 and 5 of the PI3Kγ sequence, respectively). B. RAW macrophages were pre-treated with vehicle, the PI3Kγ peptide (10 μM) or the PI3Kγ kinase inhibitor AS605240 (1 μM) for 1 hour and then with C5a (50 μM) for 5 minutes. Representative Western blot images of phospho-AKT (Ser-473) and total AKT (left) and ratio quantification (right) are shown. GAPDH was used as loading control. n=3. C. Incorporation by primary VSMC of a FITC-labelled PI3Kγ peptide at 1 h, 5 h, 24 h and 30 h after incubation. D. Quantification of FITC-associated fluorescence intensity inside VSMC area. C5a-mediated Akt phosphorylation in macrophages: After 3 h starvation in serum-free medium, RAW264 macrophages were pre-treated with the PI3Kγ competing peptide (25 μM) or the PI3Kγ inhibitor AS-605240 (1 μM; MedChemExpress) or DMSO for 30 min and stimulated for 5 min with 50 nM of C5a (Sigma Aldrich). Akt phosphorylation at Ser-473 was detected by Western blot using a Ser473 Akt-specific antibody (Cell Signaling Technology).

PKA = conditions: reference [19]; cited from earlier work
PDE4D = PDE4D function in VSMC; type: cell-based; conditions: summary statement
primary VSMC = experiment: Mouse SMC proliferation by BrdU incorporation; type: cell-based; conditions: for cell proliferation (BrdU incorporation): 25 μM peptide 24 h, PDGF 25 ng/ml with or without forskolin 25 μM, vs control peptide
Protocol: A. Representatives cross sections of injured femoral arteries stained with Masson Trichrome from the indicated hematopoietic chimeras. Scale bars=100 μM. Irradiated WT, PI3Kγ KD (KD) and PI3Kγ KO recipient mice were transplanted with bone marrow from the indicated donors to obtain the indicated chimeras. Irradiated WT mice were transplanted with bone marrow from WT, PI3Kγ KD or PI3Kγ KO to obtain the following hematopoietic chimeras: WT>WT, KD>WT and KO>WT. Irradiated KD recipient mice were transplanted with bone marrow from WT or PI3Kγ KD donor mice (WT>KD; KD>KD). Irradiated KO recipient mice were transplanted with bone marrow from WT or KO donors (WT>KO and KO>KO). B. Quantitative analysis of intima/media ratios of indicated hematopoietic chimeras. Histogram represents the neointima/media ratio for each chimera (n>6 mice for each group). Data are presented as mean±SEM and were compared using a one-way ANOVA test. C. Schematic representation of the experimental model used to investigate PI3Kγ implication in the control of SMC proliferation. D. Western blot of PI3Kγ expression in each genotype. […] (5<n<12 cultures for each genotype). Data are presented as mean±SEM and were compared using a one-way ANOVA test.
A, B, C. […] BrdU was added during the last 18 h (n=8 cultures for each genotype). Data are presented as mean±SEM and were compared using a one-way ANOVA test. D. Schematic model of PI3Kγ implication in VSMC proliferation. VSMC proliferation is induced by PDGF stimulation. […] This PI3Kγ recruitment could also concentrate phosphodiesterases (PDE) that counterbalance cAMP production by adenylate cyclase (AC) induced by other signals. By these mechanisms, PI3Kγ acts as an amplifier of VSMC synthetic transition.
Measure of mouse SMC proliferation: Primary mouse SMCs were sub-cultured onto 48-well cell culture plates in complete medium. Cells were treated or not with PDGF (520-BB-050, R&D Systems) and forskolin (F3917, Sigma Aldrich) for 24 h. For blocking peptide experiments, cells were incubated 24 h with 25 μM of control ([…]—SEQ ID No.: 13) or blocking peptide ([…]—SEQ ID No.: 14). Peptides were synthesized by GenScript (GenScript, Piscataway, N.J.). BrdU (00-0103, Invitrogen) incorporation assays were performed by classical immunofluorescence procedure using anti-BrdU antibody (11-5071, eBioscience) and DAPI. Proliferation rate is measured as the ratio of BrdU positive nuclei over total nuclei and expressed as fold increase.

[3] = forskolin-stimulated PI3Kγ-KD VSMC
[4] = forskolin-stimulated PI3Kγ-KO VSMC

## CN(C(=O)CCCOc1ccc2[nH]c(=O)ccc2c1)C1CCCCC1 [cilostamide]
[1]; [3]
  cAMP level regulated by PDE3 (cilostamide response): 17 % of IBMX response
[1]; [4]
  cAMP level regulated by PDE3 (cilostamide response): 49 % of IBMX response
[1]; forskolin-stimulated WT VSMC
  cAMP level regulated by PDE3 (cilostamide response): 25 % of IBMX response

## O=C1NC(=O)/C(=C\c2ccc3nccnc3c2)S1 [AS-6052540]
[2]; RAW macrophages pre-treated with inhibitor 1 μM
  C5a-mediated Akt phosphorylation in macrophages: significantly reduced

## RQIKIWFQNRRMKWKKGAATHASPGQIHLVQRHPPSEESQAF (control peptide)
PKA
  interaction with PKA: does not interact with PKA

## COc1ccc(C2CNC(=O)C2)cc1OC1CCCC1 (stereo not drawn) [rolipram]
[1]; [3]
  cAMP level regulated by PDE4 (rolipram response): 73 % of IBMX response
[1]; [4]
  cAMP level regulated by PDE4 (rolipram response): 43 % of IBMX response
[1]; forskolin-stimulated WT VSMC
  cAMP level regulated by PDE4 (rolipram response): 67 % of IBMX response

## C=C[C@@]1(C)CC(=O)[C@]2(O)[C@@]3(C)[C@@H](O)CCC(C)(C)[C@@H]3[C@H](O)[C@H](OC(C)=O)[C@@]2(C)O1 [forskolin]
[1]; 2.5 μM forskolin, PI3Kγ-KO primary VSMC
  cAMP production in response to forskolin: 52.57 % of IBMX response
[1]; 2.5 μM forskolin, WT primary VSMC
  cAMP production in response to forskolin: 24.09 % of IBMX response
[1]; 2.5 μM forskolin, p=0.03
  increase of forskolin cAMP response, PI3Kγ-KO compared to WT: 2.2 folds

## RQIKIWFQNRRMKWKKGKATHRSPGQIHLVQRHPPSEESQAF (KIT2014) [PI3Kγ peptide, The 126-150 region of PI3Kγ fused to the cell-penetrating peptide Penetratin 1 (P1)]
PDE4D
  PDE4D function: specifically blunted PDE4D function
[1]; peptide conjugated with Penetratin 1, summary statement
  cAMP levels in VSMC: increases their cAMP levels
Primary VSMC; PI3Kγ-KD primary VSMC
  cell proliferation (BrdU incorporation): inhibited cell proliferation
Primary VSMC; PI3Kγ-KO primary VSMC
  cell proliferation (BrdU incorporation): no difference was observed
Primary VSMC; VSMC in vitro, response to PDGF and forskolin, genotype not stated (summary statement)
  VSMC proliferation: abolished VSMC proliferation; also recorded: inhibits VSMC proliferation
Primary VSMC; WT primary VSMC
  cell proliferation (BrdU incorporation): inhibited cell proliferation
[2]; RAW macrophages pre-treated with PI3Kγ peptide (25 μM b74; 10 μM b24)
  C5a-mediated Akt phosphorylation in macrophages: unaltered
